Source: patent US11472846B2, “Compositions and methods for treating diseases by inhibiting exosome release” (priority 2016, dated 2022)

Legend:
[1] = system: MCF-7 breast cancer cells; test: InnoCyte cell migration assay, MCF-7; assay type: cell-based, human; details: MCF-7 cells, 1120 nM SMR peptide or 3 μM Latrunculin A, 24 hours
Description: (§1) 7-12. Cell migration assay. Cell migration assays were performed using the InnoCyte Cell Migration Assay (EMD Millipore Corporation, Temecula, Calif.) according to the manufacturer's instructions. Briefly, cell migration was monitored in the presence and absence of SMRwt peptides or latrunculin A (positive control inhibitor), which were added to the lower chamber of a 96-well plate. MCF-7 and MDA-MB-231 breast cancer cells and non-tumorigenic MCF-10A breast cells were harvested by 0.25% Trypsin-EDTA (Life Technologies) release and resuspended at 250,000500,000 cells/ml in serum-free RPMI 1640 media. A total of 25,000-50,000 cells was added to the upper chamber and allowed to migrate through an 8-μm pore-size membrane for 24 hours at 37° C. in a 5% CO2 atmosphere. Cells that migrated through the membrane were detached and labeled with Calcein-AM fluorescent dye. Fluorescence was measured using a Fluorescence Plate Reader (Molecular Devices, Sunnyvale, Calif.) with an excitation wavelength of 485 nm and an emission wavelength of 515 nm. The experiment was repeated in triplicate, and each conditioned experiment was performed in quadruplicate.

[2] = system: MDA-MB-231 breast cancer cells; test: InnoCyte cell migration assay, MDA-MB-231; assay type: cell-based, human; details: MDA-MB-231 cells, 280 nM SMR peptide or 3 μM Latrunculin A, 24 hours
Description: as §1

For `C/C1=C/C(=O)O[C@@H]2C[C@@H](CC[C@H](C)/C=C\C=C\CC1)O[C@@](O)([C@@H]1CSC(=O)N1)C2` [latrunculin A, reference compound], the “reduced migration by” value [1] was 53.05% and the “reduced migration by” value [2] was 50.39%.
